According to paper PMC7845594, “Novel Immune Modulators Enhance Caenorhabditis elegans Resistance to Multiple Pathogens” (mSphere, 2021):

Assays:
[1] = test system: C. elegans exposed to P. aeruginosa strain PA14; experiment: P. aeruginosa slow-killing assay (agar); type: in vivo, Caenorhabditis elegans; settings: 50 µM; for Survival in slow-killing assay vs DMSO: wild-type young adult worms
[2] = test system: C. elegans host defense pathway genes; experiment: nanoString expression of 115 immune- and stress-responsive genes; settings: 100 μM LK molecules, 16 h
Method in brief: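 Wild-type young adult C. elegans (2,000 per condition) exposed to 100 μM LK molecules or DMSO control in S Basal medium for 16 h. RNA purified and expression of 115 immune- and stress-responsive genes quantified by nanoString; two biological replicates per condition.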

[3] = wild-type worms, Fig 8 (DMSO 58.9)

In the case of `CCN(CC)/N=N/c1ccc(C(=O)O)cc1` [LK35], the “TD50, slow killing” value [1, 3] was 57.5 h, the “Survival in slow-killing assay vs DMSO” value [1] was “not significant” and the “B0024.4 expression, induction” value [2] was 0.69 fold. The “C02B4.2 nhr-17 expression, induction” value [2] was 4.68 fold, the “C06B3.7 expression, induction” value [2] was 4.95 fold and the “C07G3.2 irg-1 expression, induction” value [2] was 2.81 fold. For the same compound, the “C12C8.1 hsp-70 expression, induction” value [2] was 9.31 fold, the “C15F1.7 sod-1 expression, induction” value [2] was 1.69 fold and the “C29F7.2 expression, induction” value [2] was 7.54 fold. For the same compound, the “C31A11.5 oac-6 expression, induction” value [2] was 4.61 fold, the “C32D5.12 expression, induction” value [2] was 0.39 fold and the “C32H11.1 expression, induction” value [2] was 0.93 fold. For the same compound, the “C32H11.3 expression, induction” value [2] was 2.10 fold, the “C34G6.4 pgp-2 expression, induction” value [2] was 8.04 fold and the “C37C3.10 expression, induction” value [2] was 68.75 fold. For the same compound, the “C37H5.8 hsp-6 expression, induction” value [2] was 4.54 fold, the “C49G7.5 irg-2 expression, induction” value [2] was 14.15 fold and the “F08F8.5 numr-1 expression, induction” value [2] was 26.12 fold. The “F08H9.4 expression, induction” value [2] was 14.14 fold, the “F14F9.3 expression, induction” value [2] was 17.12 fold and the “F22B5.4 expression, induction” value [2] was 0.69 fold. For the same compound, the “F22H10.2 expression, induction” value [2] was 2.36 fold, the “F26A3.4 expression, induction” value [2] was 1.28 fold and the “F35E8.11 cdr-1 expression, induction” value [2] was 87.64 fold. The “F35G2.4 phy-2 expression, induction” value [2] was 1.60 fold, the “F37B12.2 gcs-1 expression, induction” value [2] was 12.12 fold and the “F43E2.8 hsp-4 expression, induction” value [2] was 31.03 fold. For the same compound, the “F44E5.5 expression, induction” value [2] was 8.59 fold, the “F49F1.6 expression, induction” value [2] was 2.32 fold and the “F49F1.7 expression, induction” value [2] was 2.34 fold. For the same compound, the “F49H6.13 expression, induction” value [2] was 18.14 fold, the “F54B8.4 expression, induction” value [2] was 4.73 fold and the “F55G11.2 expression, induction” value [2] was 2.21 fold. The “F59A7.1 clec-206 expression, induction” value [2] was 9.10 fold, the “F59B10.4 expression, induction” value [2] was 4.48 fold and the “H12D21.1 nspa-1 expression, induction” value [2] was 36.00 fold. The “H23N18.1 ugt-13 expression, induction” value [2] was 10.66 fold, the “H23N18.3 ugt-8 expression, induction” value [2] was 9.55 fold and the “K05B2.4 expression, induction” value [2] was 14.78 fold. For the same compound, the “K08F4.7 gst-4 expression, induction” value [2] was 12.53 fold, the “K09A9.1 nipi-3 expression, induction” value [2] was 4.14 fold and the “K10D11.2 expression, induction” value [2] was 11.43 fold. The “K10G4.3 expression, induction” value [2] was 5.63 fold, the “R03D7.6 gst-5 expression, induction” value [2] was 144.12 fold and the “R08H2.1 dhs-23 expression, induction” value [2] was 121.17 fold. The “R10E8.3 expression, induction” value [2] was 5.61 fold, the “T19D12.3 expression, induction” value [2] was 88.57 fold and the “T19H12.1 ugt-9 expression, induction” value [2] was 6.78 fold. The “T21E8.1 pgp-6 expression, induction” value [2] was 2.39 fold, the “T22B7.3 expression, induction” value [2] was 7.07 fold and the “T24C4.4 expression, induction” value [2] was 4.80 fold. The “T24E12.5 expression, induction” value [2] was 34.94 fold, the “T27E4.3 hsp-16.48 expression, induction” value [2] was 10.63 fold and the “T27E4.8 hsp-16.1 expression, induction” value [2] was 10.52 fold. For the same compound, the “T27F6.8 expression, induction” value [2] was 3.60 fold, the “T28C12.4 expression, induction” value [2] was 9.37 fold and the “W02D9.10 expression, induction” value [2] was 7.18 fold. The “Y22D7AL.5 hsp-60 expression, induction” value [2] was 2.52 fold, the “Y38E10A.15 nspe-7 expression, induction” value [2] was 3.39 fold and the “Y46H3A.2 hsp-16.41 expression, induction” value [2] was 6.06 fold. For the same compound, the “Y46H3A.3 hsp-16.2 expression, induction” value [2] was 6.32 fold, the “Y56A3A.33 expression, induction” value [2] was 3.94 fold and the “Y58A7A.5 expression, induction” value [2] was 9.18 fold. The “ZC376.7 atfs-1 expression, induction” value [2] was 3.43 fold, the “ZC443.6 ugt-16 expression, induction” value [2] was 25.67 fold and the “ZK697.6 gst-21 expression, induction” value [2] was 2.35 fold.
`O=c1cc(CNc2ccc(Br)cc2)nc2sccn12` [LK56] was tested, and the “TD50, slow killing” value ([1]; atf-7 RNAi, Fig 9) was 38.5 h, the “TD50, slow killing” value ([1]; pmk-1 RNAi, Fig 9) was 38.0 h and the “Rescue in slow killing on disruption of the PMK-1 MAPK pathway” value ([1]; pmk-1 or atf-7 RNAi) was “retained at least partial ability to rescue”. The “TD50, slow killing” value ([1]; vector RNAi, Fig 9 panels A-B, C, E) was 59.9 h, the “TD50, slow killing” value ([1]; vector RNAi, Fig 9 panels D, F) was 56.1 h and the “TD50, slow killing” value [1, 3] was 60.5 h. For the same compound, the “Survival in slow-killing assay vs DMSO” value [1] was “improved survival”, the “B0024.4 expression, induction” value [2] was 2.13 fold and the “C02B4.2 nhr-17 expression, induction” value [2] was 1.97 fold. The “C06B3.7 expression, induction” value [2] was 1.14 fold, the “C07G3.2 irg-1 expression, induction” value [2] was 1.40 fold and the “C12C8.1 hsp-70 expression, induction” value [2] was 1.04 fold. The “C15F1.7 sod-1 expression, induction” value [2] was 2.09 fold, the “C29F7.2 expression, induction” value [2] was 14.61 fold and the “C31A11.5 oac-6 expression, induction” value [2] was 2.72 fold. For the same compound, the “C32D5.12 expression, induction” value [2] was 1.17 fold, the “C32H11.1 expression, induction” value [2] was 8.05 fold and the “C32H11.3 expression, induction” value [2] was 1.05 fold. For the same compound, the “C34G6.4 pgp-2 expression, induction” value [2] was 1.72 fold, the “C37C3.10 expression, induction” value [2] was 3.56 fold and the “C37H5.8 hsp-6 expression, induction” value [2] was 1.45 fold. The “C49G7.5 irg-2 expression, induction” value [2] was 2.13 fold, the “F08F8.5 numr-1 expression, induction” value [2] was 3.14 fold and the “F08H9.4 expression, induction” value [2] was 1.04 fold. For the same compound, the “F14F9.3 expression, induction” value [2] was 1.84 fold, the “F22B5.4 expression, induction” value [2] was 2.10 fold and the “F22H10.2 expression, induction” value [2] was 1.87 fold. The “F26A3.4 expression, induction” value [2] was 1.98 fold, the “F35E8.11 cdr-1 expression, induction” value [2] was 47.99 fold and the “F35G2.4 phy-2 expression, induction” value [2] was 1.43 fold. The “F37B12.2 gcs-1 expression, induction” value [2] was 1.20 fold, the “F43E2.8 hsp-4 expression, induction” value [2] was 1.17 fold and the “F44E5.5 expression, induction” value [2] was 1.42 fold. The “F49F1.6 expression, induction” value [2] was 1.76 fold, the “F49F1.7 expression, induction” value [2] was 4.06 fold and the “F49H6.13 expression, induction” value [2] was 1.42 fold. For the same compound, the “F54B8.4 expression, induction” value [2] was 3.28 fold, the “F55G11.2 expression, induction” value [2] was 2.09 fold and the “F59A7.1 clec-206 expression, induction” value [2] was 12.55 fold. For the same compound, the “F59B10.4 expression, induction” value [2] was 1.53 fold, the “H12D21.1 nspa-1 expression, induction” value [2] was 2.13 fold and the “H23N18.1 ugt-13 expression, induction” value [2] was 4.36 fold. For the same compound, the “H23N18.3 ugt-8 expression, induction” value [2] was 20.66 fold, the “K05B2.4 expression, induction” value [2] was 2.91 fold and the “K08F4.7 gst-4 expression, induction” value [2] was 1.69 fold. For the same compound, the “K09A9.1 nipi-3 expression, induction” value [2] was 2.25 fold, the “K10D11.2 expression, induction” value [2] was 1.72 fold and the “K10G4.3 expression, induction” value [2] was 1.36 fold. The “R03D7.6 gst-5 expression, induction” value [2] was 23.60 fold, the “R08H2.1 dhs-23 expression, induction” value [2] was 182.18 fold and the “R10E8.3 expression, induction” value [2] was 1.01 fold. For the same compound, the “T19D12.3 expression, induction” value [2] was 2.00 fold, the “T19H12.1 ugt-9 expression, induction” value [2] was 6.54 fold and the “T21E8.1 pgp-6 expression, induction” value [2] was 0.89 fold. For the same compound, the “T22B7.3 expression, induction” value [2] was 1.38 fold, the “T24C4.4 expression, induction” value [2] was 1.93 fold and the “T24E12.5 expression, induction” value [2] was 2.19 fold. For the same compound, the “T27E4.3 hsp-16.48 expression, induction” value [2] was 1.38 fold, the “T27E4.8 hsp-16.1 expression, induction” value [2] was 1.30 fold and the “T27F6.8 expression, induction” value [2] was 2.98 fold. The “T28C12.4 expression, induction” value [2] was 7.67 fold, the “W02D9.10 expression, induction” value [2] was 2.27 fold and the “Y22D7AL.5 hsp-60 expression, induction” value [2] was 1.56 fold. For the same compound, the “Y38E10A.15 nspe-7 expression, induction” value [2] was 0.87 fold, the “Y46H3A.2 hsp-16.41 expression, induction” value [2] was 1.11 fold and the “Y46H3A.3 hsp-16.2 expression, induction” value [2] was 1.21 fold. The “Y56A3A.33 expression, induction” value [2] was 2.67 fold, the “Y58A7A.5 expression, induction” value [2] was 1.53 fold and the “ZC376.7 atfs-1 expression, induction” value [2] was 1.86 fold. The “ZC443.6 ugt-16 expression, induction” value [2] was 27.68 fold and the “ZK697.6 gst-21 expression, induction” value [2] was 8.40 fold.
